Laboratory results published in patent publication US10842806B2, “Methods for treating ocular inflammatory disorders” (Massachusetts Eye and Ear Infirmary, priority 2011, dated 2020).

Legend:
ICAM-1 = ICAM-1 ELISA in aqueous humor, retina and serum of EIU rats; assay type: in vivo, Lewis rats; conditions: LPS + AICAR
Procedure: Male Lewis rats ranging from 6-8 weeks old (Charles River, Wilmington, Mass.) were used for these studies. To study the effects of AICAR pretreatment, AICAR and PBS (for placebo treatment) were delivered via intraperitoneal injection of AICAR (50 mg/kg or 100 mg/kg body weight; Sigma) diluted in 150 μl PBS or equal volume of PBS at 6 hours before and at the same time as LPS injection. Four experimental groups of rats were compared: (1) Normal: no treatment (2) AICAR: normal rats treated with AICAR 6 hours before examination; (3) LPS: EIU rats treated with PBS; (4) LPS+AICAR: EIU rats treated with AICAR. Two additional groups of rats were used to study the effects of AICAR (50 mg/kg) given either at the same time as LPS injection or at 6 hours after LPS injection. Under deep anesthesia, experimental rats were sacrificed and the retinas were carefully removed 24 hours after LPS injection, placed into 200 μl of lysis buffer and then sonicated. The lysate was centrifuged at 13,000 rpm for 10 minutes at 4° C. and supernatant was isolated. Three hours after LPS injection, blood samples were collected from the heart and subsequently centrifuged at 3000 rpm for 30 minutes at 4° C., and serum samples were separated. Cytokine and chemokine levels in the serum, aqueous humor, and retina were assessed using the rat CCL2/MCP-1 kit (Invitrogen, Camarillo, Calif.), the rat TNF-α kit (R&D system, Minneapolis, Minn.) and the rat ICAM-1 kit (R&D systems) by ELISA.

splenic DCs = assay: Splenic DC co-stimulatory molecule expression in EAU mice (FACS); assay type: in vivo; conditions: AICAR-treated vs non-treated EAU mice; twelve days after immunization
Procedure: To investigate whether DC maturation was affected by AICAR, splenic DCs were isolated from EAU mice and analyzed for co-stimulatory molecule expression. Specifically, spleen cells from 4 to 5 EAU mice were pooled at twelve days after immunization and incubated with the following monoclonal antibodies: anti-CD11c (N418), CD40 (3/23), CD80 (16-10A1), CD86 (GL-1), I-A^b (AF6-120.1) (Biolegend). Spleen cells were gated on the basis of forward and side scatter profile and propidium iodide or DAPI exclusion. Samples of 1×10^6 cells were analyzed by LSR (Becton Dickinson, Franklin Lakes, N.J.).

CD14 = CD14 mRNA (real time PCR) and protein (Western blot) in PBMC of EIU rats; assay type: in vivo, Lewis rats; conditions: three hours after LPS
Procedure: Male Lewis rats ranging from 6-8 weeks old (Charles River, Wilmington, Mass.) were used for these studies. To study the effects of AICAR pretreatment, AICAR and PBS (for placebo treatment) were delivered via intraperitoneal injection of AICAR (50 mg/kg or 100 mg/kg body weight; Sigma) diluted in 150 μl PBS or equal volume of PBS at 6 hours before and at the same time as LPS injection. Four experimental groups of rats were compared: (1) Normal: no treatment (2) AICAR: normal rats treated with AICAR 6 hours before examination; (3) LPS: EIU rats treated with PBS; (4) LPS+AICAR: EIU rats treated with AICAR. Two additional groups of rats were used to study the effects of AICAR (50 mg/kg) given either at the same time as LPS injection or at 6 hours after LPS injection. For preparation of peripheral blood mononuclear cell (PBMC) samples, blood samples were collected at three hours after LPS injection, and PBMC samples were isolated by density gradient centrifugation with Histopaque 1083 (Sigma). The red blood cells were lysed with Red Blood Cell Lysing Buffer (Sigma). For Western blot analysis, pooled PBMCs from three rats were homogenized with lysis buffer (Roche Diagnostics Corp) and centrifuged at 13,000 rpm for 10 minutes at 4° C. […] Quantitative expression data were acquired and analyzed with a Step One Plus real-time PCR system (Applied Biosystems).

WT BMDCs = assay: LPS-stimulated BMDC maturation (FACS) and cytokine production (ELISA); assay type: cell-based, mice
Procedure: BMDCs were generated as previously described (Wang et al. (2005) IMMUNOL. LETT. 98:123-130). Briefly, bone marrow was flushed from the femurs and tibias of naive mice (6 to 8-week-old WT or AMPKα1 KO mice). The red blood cells were lysed using Red Blood Cell Lysing Buffer (Sigma). Approximately 2×10^6 cells were cultured in complete medium (RPMI 1640 medium containing 10% FBS, […], 10 mM HEPES [pH 7.4], 2 mM glutamine, 100 U/ml penicillin, and […]) including 10 ng/ml GM-CSF (Pepro Tech, London, England). Fresh media was added to the cells on day 4 of culture, and nonadherent cells and loosely adherent cells were collected as immature DCs on day 7. Immature DCs were stimulated with 100 ng/ml LPS (Salmonella typhimurium; Sigma) for 24 hours to obtain mature DCs. In some experiments, AICAR was added to the culture. […] After LPS stimulation for 24 hours, supernatant of the BMDC culture was collected and IL-6, TNF-α and IL12/23 p40 concentrations were measured (R&D system).

[1] = 100 ng/ml LPS 24 hours with AICAR, dose-dependent manner
[2] = LPS stimulation for 24 hours with AICAR, ELISA

## NC(=O)c1ncn([C@@H]2O[C@H](CO)[C@@H](O)[C@H]2O)c1N [AICAR, 5-aminoimidazole-4-carboxamide-1-β-d-ribofuranoside]
ICAM-1; 3 hours after LPS, n=11, LPS 28.7 ± 8.1
  ICAM-1 in serum: 21.6 ± 5.0 ng/mL
ICAM-1; 24 h after LPS, n=12, LPS 8.7 ± 4.4
  ICAM-1 in aqueous humor: 4.4 ± 3.3 ng/mL
ICAM-1; 24 h after LPS, n=14, LPS 316.4 ± 132.3
  ICAM-1 in retina: 202.9 ± 113.4 pg/total retinal protein
Splenic DCs
  CD40, CD80, CD86 and I-A^b expression on splenic DCs: no difference
CD14; AICAR pretreatment, n=9, EIU 3.8±0.7, normal 0.7±0.3
  CD14 mRNA expression in PBMCs: 1.7±1.0
CD14; AICAR-pretreated rats vs EIU rats
  CD14 protein expression in PBMCs (Western blot): decreased
WT BMDCs; [1]
  CD40 expression on BMDCs: significantly suppressed
  CD80 expression on BMDCs: significantly suppressed
  CD86 expression on BMDCs: significantly suppressed
  I-A^b expression on BMDCs: significantly suppressed
WT BMDCs; [2]
  IL-6 production in BMDCs: significantly suppressed
  IL-12/23 p40 production in BMDCs: significantly suppressed
  TNF-α production in BMDCs: significantly suppressed
